In patent US20260250260A1, “POLYMORPH OF 7,8-DIHYDROXYFLAVONE, AND PREPARATION METHOD THEREFOR” (HUIANKAI (XIAMEN) PHARMACEUTICAL TECHNOLOGY CO., LTD., priority 2022, published 2026):
Converted amounts (≈) assume the structure as drawn.

Legend:
Format in all cases: physicochemical
[1] = Crystal form conversion of comparative crystal forms on drying, at room temperature or on heating
[2] = Dynamic vapor sorption analysis (DVS); conditions: range of 0%-95% relative humidity; mass gain relative to initial mass
Experimental: Dynamic vapor sorption and desorption analysis was measured using DVS Intrinsic (SMS, UK). The test was performed in gradient mode with a humidity change of 50%-95%-0%-50%, with a change of 10% per humidity gradient in the range of 0% to 90%. The gradient endpoint was determined by dm/dt; the gradient endpoint lies where the dm/dt was less than 0.002% and maintained for 10 minutes. After the test was completed, the samples were analyzed by XRPD to confirm whether the solid morphology had changed.

[3] = Dynamic solubility in biological medium (FaSSIF, FeSSIF, FaSSGF) and water
Experimental: The 20 mg of 7,8-dihydroxyflavones in different crystal forms were weighed out separately and added into 4.0 mL of biological medium or water, and shaken at a constant temperature of 37° C. for 24 h. Samples were taken at 0.5 h, 2 h and 24 h, respectively, and the sampled solutions were filtered through 0.22 μm aquo-system filter membranes. Signal peak areas of the solutions were measured by HPLC, and finally, concentrations of the compounds in the solutions were calculated based on the peak areas, HPLC standard curves of the raw materials, and the dilution times. In addition, the supernatant at 24 h was taken to test pH, and the residual solid was subjected to the XRPD test. [table]

[4] = Stability of different 7,8-dihydroxyflavone crystal forms (XRPD characterization); conditions: for crystal form stability (general statement): performance embodiment, no conditions stated
Experimental: The stability of different 7,8-dihydroxyflavonoid crystal forms was studied under high temperature (60° C.), high humidity (25° C./92.5% RH), illumination (25° C./4500 Lux), and acceleration (40° C./75% RH) conditions, and samples were taken for XRPD characterization on day 7 and day 15, respectively.

[5] = FaSSGF pH 1.6, residual solid after 24 h at 37° C.
[6] = FaSSGF pH 1.6, supernatant at 24 h
[7] = FaSSIF pH 6.5, residual solid after 24 h at 37° C.
[8] = FaSSIF pH 6.5, supernatant at 24 h
[9] = FeSSIF pH 5.0, residual solid after 24 h at 37° C.
[10] = FeSSIF pH 5.0, supernatant at 24 h
[11] = Water, residual solid after 24 h at 37° C.

O=c1cc(-c2ccccc2)oc2c(O)c(O)ccc12 [crystal form M, 7,8-dihydroxyflavone]
crystal form conversion ([1]; at room temperature): convert to the crystal form C

O=c1cc(-c2ccccc2)oc2c(O)c(O)ccc12 [crystal form K, 7,8-dihydroxyflavone]
crystal form conversion ([1]; heated to 150° C. and then cooled to room temperature): convert to mixed crystals of the crystal form F and the crystal form J

O=c1cc(-c2ccccc2)oc2c(O)c(O)ccc12 [crystal form Q, 7,8-dihydroxyflavone]
crystal form conversion ([1]; at room temperature): convert to the crystal form C

O=c1cc(-c2ccccc2)oc2c(O)c(O)ccc12 [crystal form H, 7,8-dihydroxyflavone]
crystal form conversion ([1]; at room temperature): convert to other crystal forms

O=c1cc(-c2ccccc2)oc2c(O)c(O)ccc12 [crystal form R, 7,8-dihydroxyflavone]
crystal form conversion ([1]; at room temperature): cannot exist at room temperature for a long period

O=c1cc(-c2ccccc2)oc2c(O)c(O)ccc12 [crystal form G, 7,8-dihydroxyflavone]
crystal form conversion ([1]; heated to 140° C.): convert to the crystal form T which has a small amount of crystal form J

O=c1cc(-c2ccccc2)oc2c(O)c(O)ccc12 [crystal form E, 7,8-dihydroxyflavone]
crystal form conversion ([1]; at room temperature): convert to the crystal form N

O=c1cc(-c2ccccc2)oc2c(O)c(O)ccc12 [crystal form A, 7,8-dihydroxyflavone]
crystal form conversion ([1]; heated to 130° C.): convert to mixed crystals containing the crystal form F | crystal form conversion ([1]; heated to 160° C.): convert to mixed crystals containing the crystal form F and the crystal form J | crystal form conversion ([1]; under sufficient drying): convert to the crystal form N

O=c1cc(-c2ccccc2)oc2c(O)c(O)ccc12 [crystal form S, 7,8-dihydroxyflavone]
crystal form conversion ([1]; at room temperature): convert to the crystal form C

O=c1cc(-c2ccccc2)oc2c(O)c(O)ccc12 [crystal form O, 7,8-dihydroxyflavone]
crystal form conversion ([1]; at room temperature): convert to the crystal form C

O=c1cc(-c2ccccc2)oc2c(O)c(O)ccc12 [Crystal form P, 7,8-dihydroxyflavone]
weight gain in the dynamic vapor sorption plot [2]: less than 0.1% | Solubility 0.5 h ([3]; FaSSGF pH 1.6, 37° C.): 8.6 µg/mL (≈ 33.8 µM) | Solubility 2 h ([3]; FaSSGF pH 1.6, 37° C.): 8.6 µg/mL (≈ 33.8 µM) | Solubility 24 h ([3]; FaSSGF pH 1.6, 37° C.): 5.6 µg/mL (≈ 22 µM) | Residual solid XRPD [3, 5]: Crystal form P | Final pH [3, 6]: 1.6 | Solubility 0.5 h ([3]; FaSSIF pH 6.5, 37° C.): 24.3 µg/mL (≈ 95.6 µM) | Solubility 2 h ([3]; FaSSIF pH 6.5, 37° C.): 25.9 µg/mL (≈ 102 µM) | Solubility 24 h ([3]; FaSSIF pH 6.5, 37° C.): 20.5 µg/mL (≈ 80.6 µM) | Residual solid XRPD [3, 7]: Crystal form P | Final pH [3, 8]: 6.4 | Solubility 0.5 h ([3]; FeSSIF pH 5.0, 37° C.): 74.5 µg/mL (≈ 293 µM) | Solubility 2 h ([3]; FeSSIF pH 5.0, 37° C.): 74.3 µg/mL (≈ 292 µM) | Solubility 24 h ([3]; FeSSIF pH 5.0, 37° C.): 71.2 µg/mL (≈ 280 µM) | Residual solid XRPD [3, 9]: Crystal form P | Final pH [3, 10]: 5.0 | Solubility 0.5 h ([3]; Water, 37° C.): 11.2 µg/mL (≈ 44.1 µM) | Solubility 2 h ([3]; Water, 37° C.): 10.6 µg/mL (≈ 41.7 µM) | Solubility 24 h ([3]; Water, 37° C.): 10.6 µg/mL (≈ 41.7 µM) | Residual solid XRPD [3, 11]: Crystal form P | Final pH ([3]; Water, supernatant at 24 h): 4.6 | Result on day 7 (XRPD) ([4]; Acceleration 40° C./75% RH): No change | Result on day 15 (XRPD) ([4]; Acceleration 40° C./75% RH): No change | Result on day 7 (XRPD) ([4]; High humidity 25° C./92.5% RH): No change | Result on day 15 (XRPD) ([4]; High humidity 25° C./92.5% RH): No change | Result on day 7 (XRPD) ([4]; High temperature 60° C.): No change | Result on day 15 (XRPD) ([4]; High temperature 60° C.): No change | Result on day 7 (XRPD) ([4]; Illumination 25° C./4500 Lux): No change | Result on day 15 (XRPD) ([4]; Illumination 25° C./4500 Lux): No change | crystal form stability (general statement) [4]: stable and does not suffer from crystal transformation

O=c1cc(-c2ccccc2)oc2c(O)c(O)ccc12 [crystal form F, 7,8-dihydroxyflavone]
crystal form conversion ([1]; at room temperature): convert to the crystal form B | crystal form conversion ([1]; heated to 220° C.): convert to mixed crystals of the crystal form J and the crystal form P

O=c1cc(-c2ccccc2)oc2c(O)c(O)ccc12 [Crystal form N, 7,8-dihydroxyflavone]
weight gain in the dynamic vapor sorption plot [2]: less than 0.1% | Solubility 0.5 h ([3]; FaSSGF pH 1.6, 37° C.): 13.6 µg/mL (≈ 53.5 µM) | Solubility 2 h ([3]; FaSSGF pH 1.6, 37° C.): 18.7 µg/mL (≈ 73.6 µM) | Solubility 24 h ([3]; FaSSGF pH 1.6, 37° C.): 16.1 µg/mL (≈ 63.3 µM) | Residual solid XRPD [3, 5]: Crystal form N | Final pH [3, 6]: 1.6 | Solubility 0.5 h ([3]; FaSSIF pH 6.5, 37° C.): 35.8 µg/mL (≈ 141 µM) | Solubility 2 h ([3]; FaSSIF pH 6.5, 37° C.): 38.7 µg/mL (≈ 152 µM) | Solubility 24 h ([3]; FaSSIF pH 6.5, 37° C.): 36.5 µg/mL (≈ 144 µM) | Residual solid XRPD [3, 7]: Crystal form N | Final pH [3, 8]: 6.4 | Solubility 0.5 h ([3]; FeSSIF pH 5.0, 37° C.): 111.9 µg/mL (≈ 440 µM) | Solubility 2 h ([3]; FeSSIF pH 5.0, 37° C.): 114.2 µg/mL (≈ 449 µM) | Solubility 24 h ([3]; FeSSIF pH 5.0, 37° C.): 107.6 µg/mL (≈ 423 µM) | Residual solid XRPD [3, 9]: Crystal form N | Final pH [3, 10]: 5.0 | Solubility 0.5 h ([3]; Water, 37° C.): 15.1 µg/mL (≈ 59.4 µM) | Solubility 2 h ([3]; Water, 37° C.): 11.8 µg/mL (≈ 46.4 µM) | Solubility 24 h ([3]; Water, 37° C.): 3.1 µg/mL (≈ 12.2 µM) | Residual solid XRPD [3, 11]: Crystal form C | Final pH ([3]; Water, supernatant at 24 h): 5.2 | Result on day 7 (XRPD) ([4]; High temperature 60° C.): No change | Result on day 15 (XRPD) ([4]; High temperature 60° C.): No change | crystal form stability (general statement) [4]: stable and does not suffer from crystal transformation

O=c1cc(-c2ccccc2)oc2c(O)c(O)ccc12 [Crystal form C, 7,8-dihydroxyflavone]
weight gain in the dynamic vapor sorption plot [2]: less than 0.1% | Solubility 0.5 h ([3]; FaSSGF pH 1.6, 37° C.): 2.5 µg/mL (≈ 9.83 µM) | Solubility 2 h ([3]; FaSSGF pH 1.6, 37° C.): 2.2 µg/mL (≈ 8.65 µM) | Solubility 24 h ([3]; FaSSGF pH 1.6, 37° C.): 2.4 µg/mL (≈ 9.44 µM) | Residual solid XRPD [3, 5]: Crystal form C | Final pH [3, 6]: 1.6 | Solubility 0.5 h ([3]; FaSSIF pH 6.5, 37° C.): 9.0 µg/mL (≈ 35.4 µM) | Solubility 2 h ([3]; FaSSIF pH 6.5, 37° C.): 10.2 µg/mL (≈ 40.1 µM) | Solubility 24 h ([3]; FaSSIF pH 6.5, 37° C.): 9.8 µg/mL (≈ 38.5 µM) | Residual solid XRPD [3, 7]: Crystal form C | Final pH [3, 8]: 6.5 | Solubility 0.5 h ([3]; FeSSIF pH 5.0, 37° C.): 33.5 µg/mL (≈ 132 µM) | Solubility 2 h ([3]; FeSSIF pH 5.0, 37° C.): 33.9 µg/mL (≈ 133 µM) | Solubility 24 h ([3]; FeSSIF pH 5.0, 37° C.): 33.2 µg/mL (≈ 131 µM) | Residual solid XRPD [3, 9]: Crystal form C | Final pH [3, 10]: 5.0 | Solubility 0.5 h ([3]; Water, 37° C.): 2.6 µg/mL (≈ 10.2 µM) | Solubility 2 h ([3]; Water, 37° C.): 3.1 µg/mL (≈ 12.2 µM) | Solubility 24 h ([3]; Water, 37° C.): 3.3 µg/mL (≈ 13 µM) | Residual solid XRPD [3, 11]: Crystal form C | Final pH ([3]; Water, supernatant at 24 h): 5.5 | Result on day 7 (XRPD) ([4]; Acceleration 40° C./75% RH): No change | Result on day 15 (XRPD) ([4]; Acceleration 40° C./75% RH): No change | Result on day 7 (XRPD) ([4]; High humidity 25° C./92.5% RH): No change | Result on day 15 (XRPD) ([4]; High humidity 25° C./92.5% RH): No change | Result on day 7 (XRPD) ([4]; High temperature 60° C.): No change | Result on day 15 (XRPD) ([4]; High temperature 60° C.): No change | Result on day 7 (XRPD) ([4]; Illumination 25° C./4500 Lux): No change | Result on day 15 (XRPD) ([4]; Illumination 25° C./4500 Lux): No change | crystal form stability (general statement) [4]: stable and does not suffer from crystal transformation

O=c1cc(-c2ccccc2)oc2c(O)c(O)ccc12 [crystal form T, 7,8-dihydroxyflavone]
crystal form conversion ([1]; at room temperature): cannot exist at room temperature for a long period

O=c1cc(-c2ccccc2)oc2c(O)c(O)ccc12 [crystal form B, 7,8-dihydroxyflavone]
crystal form conversion ([1]; at 180° C.): convert to mixed crystals containing the crystal form F and the crystal form J | crystal form conversion ([1]; at room temperature): tend to convert to the crystal form C | crystal form conversion ([1]; heated to 110° C.): some characteristic peaks of the crystal form J will appear
